Each structure is given as a SMILES string. In brackets after ≈: the same amount, converted by molar mass. Several values for one entry are separate records, joined by “and”; a condition that tells them apart may be missing. Equal entries are not always repeated.

The results in this text go back to publication PMC10892836, “Hybrid Molecules of Azithromycin with Chloramphenicol and Metronidazole: Synthesis and Study of Antibacterial Properties” (Pharmaceuticals, 2024).

Experiment [1] relates to Escherichia coli ATCC 25922. The experiment can be described thus: MIC, broth microdilution (CLSI). The format is cell-based. The note with it: ATCC25922, E. coli ATCC 25922. On the procedure:
(§1) Minimum inhibitory concentration (MIC) values for facultative anaerobic bacteria were determined using the broth microdilution method outlined in the CLSI guidelines. Initially, all compounds were dissolved in dimethyl sulfoxide (DMSO) to achieve a concentration of 10 mg/mL. Subsequently, they were diluted with the Mueller–Hinton nutrient broth (MHB) supplemented with 5% defibrinated horse blood (for Streptococcus spp.) to a concentration of 64 μg/mL. Following 2-fold serial dilutions of the substances, bacterial cultures in the log growth phase were added to 96-well plates at a concentration of 2.5–5 × 10^5 CFU/mL, and the plates were incubated at 37 °C for 16–20 h.
(§2) Minimum inhibitory concentration (MIC) was defined as the lowest concentration of a chemical compound that inhibits the visible growth of the bacterial strain. At least three replicates of MIC measurements were performed.
A general note: In broth dilution the organism is exposed to a series of concentrations in liquid medium.

In experiment [2] the test system is Staphylococcus aureus ATCC 29213. Briefly: MIC, broth microdilution (CLSI). The format is cell-based. The note with it: ATCC29213, S. aureus ATCC 29213. On the procedure:
as §1, §2

In experiment [3] the test system is Streptococcus pneumoniae ATCC 49619. Briefly: MIC, broth microdilution (CLSI). The note with it: ATCC49619, S. pneumoniae ATCC 49619, Tables 2 and 3. Type of experiment: cell-based. The protocol: as §1, §2
In experiment [4] the test system is ribosome stalling on ermCL mRNA. Briefly: Toe-printing (primer extension inhibition) analysis on ermCL mRNA. Type of experiment: biochemical. Particulars: 50 μM (chloramphenicol 30 μM). On the procedure:
The toe-printing (primer extension inhibition) analysis of azithromycin derivatives was carried out essentially as previously described with some minor modifications, as indicated below. The DNA template ErmCL was generated by PCR using two overlapping primers, ErmCL-fwd (5′-[…]-3′) and ErmCL-rev (5′-[…]-3′). Before the addition of the DNA template to reaction mixtures at the in vitro translation step, tubes were pre-incubated at RT for 5 min. Moreover, phenol-chloroform extraction of reverse transcription products was replaced with DNA purification using the QIAquick® PCR Purification Kit (Qiagen, Hilden, Germany) according to the manufacturer’s protocol.
Figure 4 Toe-printing (or primer extension inhibition) analysis of azithromycin derivatives on ermCL mRNA. Ribosome stalling is detected via reverse transcription in a cell-free bacterial transcription–translation coupled system. The toe-printing bands are marked with colored arrowheads, and the A-site codons (except for the start codon, P-site codon is indicated) occupied by the stalled ribosomes are indicated in the mRNA sequence with the corresponding colors. The stop codon is marked with an asterisk. All compounds but chloramphenicol (CLM) were tested at 50 μM. Chloramphenicol (CLM) was tested at 30 μM. DMSO was used as a negative control at 0.25% final concentration. Thiostrepton (THS) was used to indicate the translation start site.

Experiment [5] deals with cell-free bacterial translation system based on the E. coli S30 lysate. Briefly: In vitro translation in a cell-free bacterial system (firefly luciferase synthesis). Particulars: for Relative luciferase activity (relative maximal rate of Fluc accumulation): final concentration 5 μM, water control = 100%. The format is biochemical. The protocol: The inhibition of firefly luciferase (Fluc) synthesis by new azithromycin derivatives was assessed with the E. coli S30 Extract System for Linear Templates (Promega, Madison, WI, USA). Each reaction (5 μL total volume) was supplied with 0.1 mM mixture of all canonical amino acids, 4 U of RiboLock RNase Inhibitor (Thermo Fisher Scientific, Waltham, MA, USA), 0.1 mM of D-luciferin (Sigma-Aldrich, Burlington, MA, USA), 50 ng of firefly luciferase (Fluc) mRNA, and a chemical compound at a final concentration, as indicated in the main text, or nuclease-free water instead. Before the addition of mRNA, reaction tubes were pre-incubated at RT for 5 min and then placed back on ice. After the addition of mRNA, reaction mixtures were immediately subjected to continuous chemiluminescence measurement using the VICTOR X5 Multilabel Plate Reader (PerkinElmer, Waltham, MA, USA) at 37 °C for 30 min. Maximal rates of the firefly luciferase (Fluc) accumulation were calculated using the OriginPro 7.5 software. The values were normalized to a positive control (nuclease-free water, assigned a value of 100%). The results were visualized using the QtiPlot software (version 0.9.8.9).

For experiment [6], the system named is E. coli ΔtolC pErmCL-ErmC. Briefly: MIC, broth microdilution, E. coli ΔtolC panel. The format is cell-based. Particulars: for MIC: Escherichia coli. The protocol: In order to create the construct pErmCL-ErmC, the vector backbone was amplified using pZa-fwd (5′-TAAGAATTCTCTAGCCCG-3′) and pZa-rev (5′-[…]-3′) primers, and the pERMZα plasmid as a template. The ermC gene was amplified from the pERMCTP plasmid with ErmC-fwd (5′-[…]-3′) and ErmC-rev (5′-TAGGCGGGCTAGAGAATTC-3′) primers. The joining of two DNA fragments was performed using the NEBuilder® HiFi DNA Assembly Master Mix (New England Biolabs, Ipswich, MA, USA). Sequences of intermediate products and the final construct were confirmed by Sanger sequencing with appropriate primers.
(§3) The E. coli ΔtolC strain was also transformed with the pErmC, pErmCL-ErmC, and pERMZα plasmids. The resulting strains were grown at 37 °C in LB medium supplied with 100 μg/mL ampicillin.
(§4) MIC values for a panel of E. coli ΔtolC strains were determined via the broth microdilution assay as described here with minor modifications. Briefly, the overnight E. coli culture was diluted to an OD600 of 0.01 in the fresh LB medium supplied with 100 μg/mL ampicillin, if required. Then, the cells were additionally incubated for 1–1.5 h at 37 °C with shaking at 200 rpm (Shaker-Incubator ES-20/80, BioSan, Riga, Latvia). Meanwhile, 100 μL of the liquid growth medium was placed in each well of a 96-well sterile plate (200 μL was placed in column 1). Solutions of tested compounds were added in the first column of the plate at 2 times the final concentration of 200 μg/mL. Then, 2-fold serial dilutions were performed. Immediately before use, bacterial inoculum was diluted (1:100) in the growth medium, and 100 μL of it was transferred in each well except for the sterility control column. The plate was incubated overnight (16–20 h) at 37 °C with constant shaking at 200 rpm (Shaker-Incubator ES-20/80, BioSan, Riga Latvia). Cell growth was assessed by scanning the OD600 with a VICTOR X5 Multilabel Plate Reader (PerkinElmer, Waltham, MA, USA).
as §2

The test system of another experiment is E. coli ΔtolC. Briefly: MIC, broth microdilution, E. coli ΔtolC panel. The format is cell-based. Particulars: for MIC: Escherichia coli.
From the text: The E. coli JW5503 strain with a deletion of the tolC gene (referred to here as E. coli ΔtolC) was kindly provided by Prof. Hironori Niki, National Institute of Genetics, Japan. The E. coli BW25113 strain with a partial deletion of the lptD gene, codons 330 to 352 (referred to here as E. coli lptD^mut) was kindly provided by Prof. Alexander S. Mankin, University of Illinois, Chicago, IL, USA [44]. The E. coli ΔtolC strain was transformed with the pDualrep2 (Amp^R) plasmid, whereas the E. coli lptD^mut strain was transformed with the pDualrep2 (Kan^R) plasmid (not yet published). Both E. coli strains were grown at 37 °C in Luria–Bertani (LB) medium supplemented with either 100 μg/mL ampicillin or 50 μg/mL kanamycin.
as §4, §2

In another experiment the test system is E. coli ΔtolC pERMZα. Briefly: MIC, broth microdilution, E. coli ΔtolC panel. The format is cell-based. The note with it: Escherichia coli. On the procedure:
as §3, §4, §2

Another experiment deals with E. coli ΔtolC pErmC. Briefly: MIC, broth microdilution, E. coli ΔtolC panel. The format is cell-based. The note with it: Escherichia coli. The protocol: as §3, §4, §2
The test system of experiment [7] is Streptococcus agalactiae 1Cp. The experiment can be described thus: MIC, broth microdilution (CLSI). The note with it: S. agalactiae 1Cp, Table 3. The format is cell-based. The protocol: as §1, §2
For experiment [8], the system named is Propionibacterium acnes 55. Briefly: MIC, agar dilution, anaerobic bacteria (CLSI M11-A9). Type of experiment: cell-based. The note with it: Cutibacterium acnes; P. acnes 55, anaerobic clinical isolate. In general terms: Agar dilution tests growth on a series of plates holding different concentrations.
Experiment [9] deals with Clostridium sporogenes ATCC 19404. The experiment is described as above. The format is cell-based. The note with it: ATCC19404, C. sporogenes ATCC 19404, anaerobic. The protocol:
The antimicrobial activity against anaerobic bacteria was evaluated using the agar dilution method in accordance with the CLSI document M11-A9 [58]. Twofold serial dilutions of compounds, at 10 times the desired concentration, were prepared in water and diluted (1:10) with the Brucella Agar medium containing 5% defibrinated horse blood, 5 mg/L hemin, and 1 mg/L vitamin K. The resulting plates were inoculated with approximately 10^5 CFU per spot using a replicator and incubated anaerobically at 36 °C for 48 h.
as §2

For the next experiment, the system named is 70S E. coli ribosomes. Briefly: Competition-binding assay with BODIPY-ERY (fluorescence anisotropy). Particulars: displacement of BODIPY-ERY; means, 95% confidence intervals; read-out: Apparent dissociation constant KD. On the procedure: Affinity of compounds to the 70S E. coli ribosomes (isolated from the E. coli MRE600 strain according to a published procedure) was evaluated with a competition-binding assay using fluorescently labeled erythromycin (BODIPY-ERY) as described earlier. Briefly, BODIPY-ERY (16 nM) was mixed with ribosomes (34 nM) in 384-well plates in the buffer containing 20 mM HEPES-KOH (pH 7.5), 50 mM NH4Cl, 10 mM Mg(CH3CO2)2, 4 mM β-mercaptoethanol, and 0.05% (v/v) Tween-20. Solutions of the tested compounds were added to the obtained complexes to final concentrations from 1 to 1000 nM and incubated for 2 h at 30 °C. The values of fluorescence anisotropy were obtained using the VICTOR X5 Multilabel Plate Reader (PerkinElmer, Waltham, MA, USA). Filters of 485 and 535 nm were used for excitation and emission, respectively. To calculate the apparent dissociation constants, the assumption that the competitive equilibrium binding of two ligands occurs at a single binding site was used. For each compound, at least 2 replicates were performed. Values of apparent dissociation constants are given as means with 95% confidence intervals. The results were visualized using the GraphPad Prism software (version 8.0.1).
In general terms: Fluorescence polarisation rises when a labelled molecule tumbles more slowly, as on binding a larger partner.

With `O=C(N[C@H](CO)[C@H](O)c1ccc([N+](=O)[O-])cc1)C(Cl)Cl` [CLM, Chloramphenicol], the minimum inhibitory concentration (MIC) – broadly, the lowest concentration that inhibits growth of the organism – in experiment [1] is 8 µg/mL (≈ 24.8 µM); in experiment [2] it was 8 µg/mL (≈ 24.8 µM); in experiment [3], 4 µg/mL (≈ 12.4 µM); in experiment [6], 1.6 µg/mL (≈ 4.95 µM); against E. coli ΔtolC it was 1.6 µg/mL (≈ 4.95 µM); against E. coli ΔtolC pERMZα it was 1.6 µg/mL (≈ 4.95 µM). In addition, the MIC with E. coli ΔtolC pErmC was found to be 1.6 µg/mL (≈ 4.95 µM). Besides, the “Ribosome stalling pattern on ermCL mRNA” value in experiment [4] is given as “strong ribosome stalling when the Ser codon (AGU) occupies the E-site of the ribosome”. In addition, in experiment [5], the “Relative luciferase activity (relative maximal rate of Fluc accumulation)” value (“Relative luciferase activity” below) is 21%. In experiment [6], the “Fold increase in the MIC value on E. coli ΔtolC pErmCL-ErmC compared to E. coli ΔtolC” value is on record as “no changes in the MIC values”.

As to `CC[C@H]1OC(=O)[C@H](C)[C@@H](O[C@H]2C[C@@](C)(OC)[C@@H](O)[C@H](C)O2)[C@H](C)[C@@H](O[C@@H]2O[C@H](C)C[C@H](N(C)C)[C@H]2O)[C@](C)(O)C[C@@H](C)C(=O)[C@H](C)[C@@H](O)[C@]1(C)O` [ERY, erythromycin], in experiment [5], the “Relative luciferase activity” value came to 0.9%. Further, the “Fold increase in the MIC value on E. coli ΔtolC pErmCL-ErmC compared to E. coli ΔtolC” value in [6] is reported as 16 fold. For the same molecule, the MIC in experiment [6] is 50 µg/mL (≈ 68.1 µM); in the experiment with E. coli ΔtolC, 3.1 µg/mL (≈ 4.22 µM); against E. coli ΔtolC pERMZα, 1.6 µg/mL (≈ 2.18 µM); against E. coli ΔtolC pErmC, > 200 µg/mL.

`Cc1ncc([N+](=O)[O-])n1CCO` [MNZ, Metronidazole]: the minimum inhibitory concentration (MIC) in experiment [7] is > 32 µg/mL; in experiment [2] it was > 32 µg/mL; in experiment [3], > 32 µg/mL; in experiment [8], > 32 µg/mL; in [6] it was > 200 µg/mL; with E. coli ΔtolC it was > 200 µg/mL. For the same molecule, the results for the MIC (against E. coli ΔtolC pERMZα; in the experiment with E. coli ΔtolC pErmC; in experiment [9]) were > 200 µg/mL, > 200 µg/mL and 8 µg/mL (≈ 46.7 µM), respectively. The “Inhibition of protein synthesis in vitro” value in experiment [5] (concentration of 50 μM (Figure 2B)) is “no inhibition was observed”.

`CC[C@H]1OC(=O)[C@H](C)[C@@H](O[C@H]2C[C@@](C)(OC)[C@@H](OC(=O)NCCN)[C@H](C)O2)[C@H](C)[C@@H](O[C@@H]2O[C@H](C)C[C@H](N(C)C)[C@H]2OC(C)=O)[C@](C)(O)C[C@@H](C)CN(C)[C@H](C)[C@H]2OC(=O)O[C@@]21C` [compound 6, 2′-O-Acetyl-4′′-O-((2-aminoethyl)carbamoyl)-11,12-cyclic carbonate of azithromycin]: the MIC in [1] is > 32 µg/mL; in [2], 32 µg/mL (≈ 35.4 µM); in experiment [3], > 32 µg/mL; in [6] it was 6.3 µg/mL (≈ 6.98 µM); with E. coli ΔtolC, 3.1 µg/mL (≈ 3.43 µM); with E. coli ΔtolC pERMZα it was 3.1 µg/mL (≈ 3.43 µM). Further, in the experiment with E. coli ΔtolC pErmC, the MIC is > 200 µg/mL. Moreover, the “Ribosome stalling pattern on ermCL mRNA” value in experiment [4] is recorded as “premature ribosome stalling at the first Phe codon (UUU)”. Further, the “Relative luciferase activity” value in experiment [5] worked out at 46%. The “Times weaker than the parental antibiotic (azithromycin), MIC” value in the experiment on E. coli ΔtolC (toward E. coli strains (Table 4)) was 2–4 times. In addition, the Kd with 70S E. coli ribosomes was 6.5 nM and 6 nM.
